Consider 13 compounds from ChEMBL document CHEMBL4196213, “Design and Synthesis of Novel Amino-triazine Analogues as Selective Bruton's Tyrosine Kinase Inhibitors for Treatment of Rheumatoid Arthritis” (J Med Chem, 2018).

As a reminder, the Papp is the rate of passage across a membrane or cell layer, normalised by area and donor concentration. Broadly, the AUC(0-inf) is total exposure, with the tail of the curve extrapolated. Usually bioavailability stands for dose-corrected exposure relative to a reference, in per cent. A low value points to little systemic uptake. What is called AUC(0-t) is exposure summed from dosing to a finite time, without extrapolation to infinity. Read a high AUC(0-t) as high exposure. Broadly, the MRT inf is the average time that molecules of a dose stay in the body. For orientation: Cmax means the peak of the concentration-time curve. What is called Tmax is the time at which the peak concentration occurs. In general, Vd refers to a proportionality between amount in the body and measured concentration, not a real space. Low values mean little distribution into tissue, high ones wide distribution into tissue.

Converted amounts (≈) assume the structure as drawn.

Data set [1] can be described thus: Kinetic solubility of the compound incubated for 1 hr by LC-UV or LC-MS/MS analysis. Particulars: read-out: Kinetic_solubility. The class given is physicochemical.
Data set [2] can be described thus: Apparent permeability in human Caco2 cells. The class given is ADME, cell-based. To be noted: Caco-2. For orientation: Caco-2 monolayers are a common model of the intestinal barrier.
The nature of data set [3]: AUC (0 to infinity) in mouse at 2 mg/kg, iv. Set-up: dose 2 mg/kg, time infinity, route intravenous. The class given is ADME, organism-based. Particulars: in vivo.
Data set [4] is described as follows: Oral bioavailability in mouse at 10 mg/kg. To be noted: in vivo. The class given is ADME, organism-based.
Data set [5] in a line: Oral bioavailability in rat at 10 mg/kg. Particulars: in vivo. The class given is ADME, organism-based.
A short description of data set [6]: AUC (0 to t) in rat at 1 mg/kg, iv. The class given is ADME, organism-based. Particulars: in vivo.
Data set [7] in a line: MRT (0 to infinity) in mouse at 10 mg/kg, po. The class given is ADME, organism-based. Particulars: in vivo.
Data set [8] can be described thus: MRT (0 to infinity) in mouse at 2 mg/kg, iv. The class given is ADME, organism-based. To be noted: in vivo.
Data set [9] is described as follows: Cmax in mouse at 2 mg/kg, iv. The class given is ADME, organism-based. Also noted: dose 2 mg/kg, route intravenous. To be noted: in vivo.
The nature of data set [10]: AUC (0 to infinity) in mouse at 10 mg/kg, po. The class given is ADME, organism-based. Also noted: dose 10 mg/kg, time infinity, route oral. To be noted: in vivo.
A short description of data set [11]: MRT (0 to infinity) in rat at 10 mg/kg, po. Particulars: in vivo. The class given is ADME, organism-based.
A short description of data set [12]: AUC (0 to t) in rat at 10 mg/kg, po. The class given is ADME, organism-based. To be noted: in vivo.
Data set [13] in a line: Tmax in mouse at 10 mg/kg, po. The class given is ADME, organism-based. Particulars: in vivo.
The nature of data set [14]: Volume of distribution in mouse at 2 mg/kg, iv. The class given is ADME, organism-based. Particulars: in vivo.
Data set [15] in a line: MRT (0 to infinity) in rat at 1 mg/kg, iv. The class given is ADME, organism-based. Particulars: in vivo.
Data set [16] in a line: Cmax in rat at 10 mg/kg, po. Set-up: dose 10 mg/kg, route oral. The class given is ADME, organism-based. Particulars: in vivo.
The nature of data set [17]: Tmax in rat at 10 mg/kg, po. Particulars: in vivo. The class given is ADME, organism-based.
Data set [18] is described as follows: AUC (0 to t) in mouse at 10 mg/kg, po. Particulars: in vivo. The class given is ADME, organism-based.
Data set [19] can be described thus: AUC (0 to t) in mouse at 2 mg/kg, iv. Particulars: in vivo. The class given is ADME, organism-based.
Data set [20] can be described thus: AUC (0 to infinity) in rat at 10 mg/kg, po. Set-up: dose 10 mg/kg, route oral, time infinity. Particulars: in vivo. The class given is ADME, organism-based.
A short description of data set [21]: Cmax in rat at 1 mg/kg, iv. The class given is ADME, organism-based. Also noted: dose 1 mg/kg, route intravenous. Particulars: in vivo.
The nature of data set [22]: Volume of distribution in rat at 1 mg/kg, iv. To be noted: in vivo. The class given is ADME, organism-based.
A short description of data set [23]: AUC (0 to t) in dog at 2 mg/kg, po. The class given is ADME, organism-based, Canis lupus familiaris. Particulars: in vivo.
The nature of data set [24]: Tmax in dog at 2 mg/kg, po. The class given is ADME, organism-based, Canis lupus familiaris. To be noted: in vivo.
The nature of data set [25]: Volume of distribution in dog at 1 mg/kg, iv. The class given is ADME, organism-based, Canis lupus familiaris. Particulars: in vivo.
Data set [26] can be described thus: MRT (0 to infinity) in dog at 1 mg/kg, iv. To be noted: in vivo. The class given is ADME, organism-based, Canis lupus familiaris.
Data set [27] in a line: Oral bioavailability in dog at 2 mg/kg, iv. The class given is ADME, organism-based, Canis lupus familiaris. To be noted: in vivo.
Data set [28] is described as follows: Cmax in dog at 1 mg/kg, iv. The class given is ADME, organism-based, Canis lupus familiaris. Also noted: dose 1 mg/kg, route intravenous. Particulars: in vivo.
Data set [29] is described as follows: AUC (0 to infinity) in dog at 1 mg/kg, iv. The class given is ADME, organism-based, Canis lupus familiaris. Set-up: dose 1 mg/kg, time infinity, route intravenous. Particulars: in vivo.
Data set [30] in a line: AUC (0 to t) in dog at 1 mg/kg, iv. The class given is ADME, organism-based, Canis lupus familiaris. Particulars: in vivo.
Data set [31] is described as follows: Cmax in dog at 2 mg/kg, po. The class given is ADME, organism-based, Canis lupus familiaris. Set-up: dose 2 mg/kg, route oral. Particulars: in vivo.
The nature of data set [32]: AUC (0 to infinity) in dog at 2 mg/kg, po. The class given is ADME, organism-based, Canis lupus familiaris. Also noted: dose 2 mg/kg, time infinity, route oral. To be noted: in vivo.

Turning to `CCn1cc(Nc2nc(N)nc(-c3cccc(-n4ccc5cc(C6CC6)cc(F)c5c4=O)c3CO)n2)cc1C#N`, the solubility kinetic at 1 h in [1] was 0.71 µM (≈ 0.381 µg/mL).
On the same count and under the same terms, as for `Nc1nc(Nc2ccc(N3CCOCC3)cc2)nc(-c2cccc(-n3ccc4cc(C5CC5)cc(F)c4c3=O)c2CO)n1`, the figure is 1.2 µM (≈ 0.696 µg/mL).
Take `CC(C)(C)c1ccc(C(=O)Nc2cccc(-c3nc(N)nc(Nc4ccc(C(=O)N5CCOCC5)cc4)n3)c2CO)cc1`: the Papp in [2] worked out at 7.4 ×10⁻⁶ cm/s.
As for `Nc1nc(Nc2cnn(C3CC3)c2)nc(-c2cccc(-n3ccc4cc(C5CC5)cc(F)c4c3=O)c2CO)n1`, in data set [1], the solubility kinetic at 1 h was 4.7 µM (≈ 2.47 µg/mL).
The same measure, in the same setting: the value for `Nc1nc(Nc2cn[nH]c2)nc(-c2cccc(-n3ccc4cc(C5CC5)cc(F)c4c3=O)c2CO)n1` was 12 µM (≈ 5.81 µg/mL); that for `N#Cc1cc(Nc2nc(N)nc(-c3cccc(-n4ccc5cc(C6CC6)cc(F)c5c4=O)c3CO)n2)cn1C1CC1` was 4 µM (≈ 2.19 µg/mL).
As for `CC(C1CC1)n1cc(Nc2nc(N)nc(-c3cccc(-n4ccc5cc(C6CC6)cc(F)c5c4=O)c3CO)n2)cn1` (configuration not stated), the solubility kinetic at 1 h in data set [1] is 2 µM (≈ 1.11 µg/mL).
For `Cn1cc(Nc2nc(N)nc(-c3cccc(-n4ccc5cc(C6CC6)cc(F)c5c4=O)c3CO)n2)cc1C#N`, the solubility kinetic at 1 h in data set [1] turned out to be 0.67 µM (≈ 0.35 µg/mL).
With `CC(C)(C)c1ccc(C(=O)Nc2cccc(-c3nc(N)nc(Nc4ccc(N5CCOCC5)cc4)n3)c2CO)cc1`, the Papp in data set [2] stood at 16.3 ×10⁻⁶ cm/s.
As to `CC(C)n1cc(Nc2nc(N)nc(-c3cccc(-n4ccc5cc(C6CC6)cc(F)c5c4=O)c3CO)n2)cc1C#N`, the solubility kinetic at 1 h in [1] worked out at 4.8 µM (≈ 2.64 µg/mL).
Regarding `Cn1cc(Nc2nc(N)nc(-c3cccc(-n4ccc5cc(C6CC6)cc(F)c5c4=O)c3CO)n2)cn1` [SOFNOBRUTINIB], the results for the AUC(0-inf) in data set [3], in data set [10] and in data set [20] were 3110 ng·h/mL, 10200 ng·h/mL and 8710 ng·h/mL, respectively. In addition, the bioavailability in data set [4] was 65.8%; in [5], 44.4%. Further, the AUC(0-t) worked out at 1920 ng·h/mL in data set [6], 8700 ng·h/mL in data set [12], 10200 ng·h/mL in data set [18] and 3110 ng·h/mL in data set [19]. Moreover, the MRT inf in data set [7] came out at 1.56 h; in data set [8], 1.3 h; in [11], 4.88 h; in data set [15], 1.79 h. Further, the values for the Cmax in data set [9], in data set [16] and in data set [21] were 2890 ng/mL, 1480 ng/mL and 1380 ng/mL, respectively. Besides, the Tmax was 0.5 h in data set [13] and 2 h in [17]. For the same compound, the Vd amounted to 3.03 L/kg in data set [14] and 1.1 L/kg in data set [22]. The solubility kinetic at 1 h in data set [1] amounted to 20 µM (≈ 9.97 µg/mL).
`Cn1cc(Nc2nc(N)nc(-c3cccc(-n4ccc5cc(C6CC6)cc(F)c5c4=O)c3CO)n2)cn1.O=S(=O)(O)O`: the AUC(0-t) in data set [23] is 9850 ng·h/mL; in [30], 11300 ng·h/mL. The Tmax in [24] turned out to be 2 h. In data set [25], this compound showed a Vd of 0.29 L/kg. The compound further registered an MRT inf in [26] of 3.31 h. In addition, the bioavailability in data set [27] turned out to be 43.7%. For the same compound, the Cmax in [28] worked out at 4960 ng/mL; in [31], 2090 ng/mL. For the same compound, the AUC(0-inf) amounted to 11500 ng·h/mL in data set [29] and 10000 ng·h/mL in data set [32].
Consider `COCCOCCn1cc(Nc2nc(N)nc(-c3cccc(-n4ccc5cc(C6CC6)cc(F)c5c4=O)c3CO)n2)cc1C#N`, for which the solubility kinetic at 1 h in [1] stood at 9.5 µM (≈ 5.8 µg/mL).
